Laboratory results as given in patent US20240383904A1, “HETEROCYCLIC COMPOUNDS” (Hoffmann-La Roche Inc., priority 2021, published 2024).

Target: T1, MAGL (Homo sapiens, UniProt Q99685)
T1 sequence (Q99685 1-303): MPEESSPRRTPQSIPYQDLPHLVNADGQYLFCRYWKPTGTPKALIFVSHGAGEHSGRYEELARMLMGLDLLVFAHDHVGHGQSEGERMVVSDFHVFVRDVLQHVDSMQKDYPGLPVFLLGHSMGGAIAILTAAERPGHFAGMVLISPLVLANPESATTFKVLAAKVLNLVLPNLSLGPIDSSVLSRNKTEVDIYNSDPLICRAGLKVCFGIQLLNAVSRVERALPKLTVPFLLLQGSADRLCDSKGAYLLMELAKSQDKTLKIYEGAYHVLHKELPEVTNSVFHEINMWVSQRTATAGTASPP
Assay: 2-AG assay: MAGL inhibitory activity by hydrolysis of 2-arachidonoylglycerol to arachidonic acid, followed by mass spectrometry
Format: biochemical
Conditions: 15 min preincubation, 30 min reaction at RT, 8 μM 2-arachidonoylglycerol
Text: Compounds of formula (I) were profiled for MAGL inhibitory activity by determining the enzymatic activity by following the hydrolysis of the natural substrate 2-arachidonoylglycerol (2-AG) resulting in arachidonic acid, which can be followed by mass spectrometry. This assay is hereinafter abbreviated “2-AG assay”.
Compounds of formula (I) were profiled for MAGL inhibitory activity by determining the enzymatic activity by following the hydrolysis of the natural substrate 2-arachidonoylglycerol (2-AG) resulting in arachidonic acid, which can be followed by mass spectrometry. This assay is hereinafter abbreviated “2-AG assay”. The 2-AG assay was carried out in 384 well polypropylene assay plates. Compound dilutions were made in 100% DMSO in a polypropylene plate in 3-fold dilution steps to give a final concentration range in the assay from 12.5 μM to […]. Compound dilutions were added to MAGL protein in assay buffer (50 mM TRIS, 1 mM EDTA, 0.01% (v/v) Tween-20, 2.5% (v/v) DMSO). After shaking, the plate was incubated for 15 min at RT. To start the reaction, 2-arachidonoylglycerol in assay buffer was added. The final concentrations in the assay was […] for MAGL protein and 8 μM 2-arachidonoylglyerol. After shaking and 30 min incubation at RT, the reaction was quenched by the addition of two assay volumes of acetonitrile containing 4 μM of d8-arachidonic acid. The amount of arachidonic acid formed was traced by an online SPE system (Agilent Rapidfire) coupled to a triple quadrupole mass spectrometer. A C18 SPE cartridge (Agilent G9205A) was used in an acetonitrile/water liquid setup. The mass spectrometer was operated in negative electrospray mode following the mass transitions 303.1→259.1 for arachidonic acid and 311.1→267.0 for d8-arachidonic acid. The activity of the compounds was calculated based on the ratio of intensities [arachidonic acid/d 8-arachidonic acid].

Structure (SMILES) | IC50 [nM]
CS(=O)(=O)c1cc(F)cc(CC2CC3(C2)CN(C(=O)N2CC4(CCC(=O)N4)C2)C3)c1 [Example 10, 2-[6-(3-fluoro-5-mesyl-benzyl)-2-azaspiro[3.3]heptane-2-carbonyl]-2,5-diazaspiro[3.4]octan-6-one] | 24.5
O=C1NC2(CCO1)CN(C(=O)N1CCC3(CC1)CN(Cc1ccc(C(F)(F)F)cc1F)C3)C2 [Example 91, 2-[2-[2-fluoro-4-(trifluoromethyl)benzyl]-2,7-diazaspiro[3.5]nonane-7-carbonyl]-7-oxa-2,5-diazaspiro[3.5]nonan-6-one] | 635
O=C1NCC2(CN(C(=O)N3CC4(CCC(Cc5ccc(C(F)(F)F)cn5)CC4)C3)C2)N1 [Example 45, 2-[7-[[5-(trifluoromethyl)-2-pyridyl]methyl]-2-azaspiro[3.5]nonane-2-carbonyl]-2,5,7-triazaspiro[3.4]octan-6-one] | 26.3
O=C1CCC2(CN(C(=O)N3CC4(CN(Cc5ccc[nH]c5=O)C4)C3)C2)N1 [Example 375, 2-[6-[(2-keto-1H-pyridin-3-yl)methyl]-2,6-diazaspiro[3.3]heptane-2-carbonyl]-2,5-diazaspiro[3.4]octna-6-one] | 1850
CS(=O)(=O)c1ccc(CC2CC3(C2)CN(C(=O)N2CC4(CCC(=O)N4)C2)C3)cc1 [Example 8, 2-[6-(4-mesylbenzyl)-2-azaspiro[3.3]heptane-2-carbonyl]-2,5-diazaspiro[3.4]octan-6-one] | 15.1
O=C1CCC2(CN(C(=O)N3CC4(CC(Cc5nc(C(F)(F)F)co5)C4)C3)C2)N1 [Example 58, 2-[6-[[4-(trifluoromethyl)oxazol-2-yl]methyl]-2-azaspiro[3.3]heptane-2-carbonyl]-2,5-diazaspiro[3.4]octan-6-one] | 17.3
O=C1CCC2(CN(C(=O)N3CC4(CC(Cc5cc(C(F)F)[nH]n5)C4)C3)C2)N1 [Example 257, 2-[6-[[5-(difluoromethyl)-1H-pyrazol-3-yl]methyl]-2-azaspiro[3.4]heptane-2-carbonyl]-2,5-diazaspiro[3.4]octan-6-one] | 16.5
O=C1CCC2(CN(C(=O)N3CC4(CC(Cc5nc(C(F)(F)F)ns5)C4)C3)C2)N1 [Example 57, 2-[6-[[3-(trifluoromethyl)-1,2,4-thiadiazol-5-y1]methyl]-2-azaspiro[3.3]heptane-2-carbonyl]-2,5-diazaspiro[3.4]octan-6-one] | 13.4
O=C1NC2(CO1)CN(C(=O)N1CC3(C1)CN(S(=O)(=O)c1ccccc1OC(F)(F)F)C3)C2 [Example 190, 2-[2-[2-(trifluoromethoxy)phenyl]sulfonyl-2,6-diazaspiro[3.3]heptane-6-carbonyl]-7-oxa-2,5-diazaspiro[3.4]octan-6-one] | 10.4
O=C1CCCC2(CN(C(=O)N3CC4(CC(Cc5cccc(S(=O)(=O)C(F)(F)F)c5)C4)C3)C2)N1 [Example 186, 2-[6-[[3-(trifluoromethylsulfonyl)phenyl]methyl]-2-azaspiro[3.3]heptane-2-carbonyl]-2,5-diazaspiro[3.5]nonan-6-one] | 95
O=C1COCC2(CN(C(=O)N3CC4(CN(Cc5ccc(S(=O)(=O)C(F)(F)F)cc5F)C4)C3)C2)N1 [Example 373, 2-[6-(2-fluoro-4-triflyl-benzyl)-2,6-diazaspiro[3.3]heptane-2-carbonyl]-8-oxa-2,5-diazaspiro[3.5]nonan-6-one] | 59.2
O=C1COCC2(CN(C(=O)N3CC4(CCN(Cc5cccc(S(=O)(=O)C(F)(F)F)c5)C4)C3)C2)N1 [Example 260, 2-[7-[[3-(trifluoromethylsulfonyl)phenyl]methyl]-2,7-diazaspiro[3.4]octane-2-carbonyl]-8-oxa-2,5-diazaspiro[3.5]nonan-6-one] | 80.7

Now from value to compound:

IC50 [nM] | Structure (SMILES)
2.35 | Cn1cc(CC2CC3(C2)CN(C(=O)N2CC4(CCC(=O)N4)C2)C3)c(C(F)(F)F)n1 [Example 169, 2-[6-[[1-methyl-3-(trifluoromethyl)pyrazol-4-yl]methyl]-2-azaspiro[3.3]heptane-2-carbonyl]-2,5-diazaspiro[3.4]octan-6-one]
0.21 | CS(=O)(=O)c1ccc(CC2CCC3(C2)CN(C(=O)N2CC4(COC(=O)N4)C2)C3)cc1C(F)(F)F (stereo not drawn) [Example 109, 2-[6-[4-mesyl-3-(trifluoromethyl)benzyl]-2-azaspiro[3.4]octane-2-carbonyl]-7-oxa-2,5-diazaspiro[3.4]octan-6-one]
0.11 | O=C1NC2(CO1)CN(C(=O)N1CC3(CC(Cc4ccc(OC(F)(F)F)cn4)C3)C1)C2 [Example 26, 2-[6-[[5-(trifluoromethoxy)-2-pyridyl]methyl]-2-azaspiro[3.3]heptane-2-carbonyl]-7-oxa-2,5-diazaspiro[3.4]octan-6-one]
2.15 | N=[S@](=O)(c1cccc(CC2CC3(C2)CN(C(=O)N2CC4(COCC(=O)N4)C2)C3)c1)C(F)(F)F [Example 294, 2-[6-[[3-(trifluoromethylsulfoni-midoyl)phenyl]methyl]-2-azaspiro[3.3]heptane-2-carbonyl]-8-oxa-2,5-diazaspiro[3.5]nonan-6-one]
3 | O=C1COCC2(CN(C(=O)N3CC4(CC(Cc5ncc(F)cc5Cl)C4)C3)C2)N1 [Example 176, 2-[6-[(3-chloro-5-fluoro-2-pyridyl)methyl]-2-azaspiro[3.3]heptane-2-carbonyl]-8-oxa-2,5-diazaspiro[3.5]nonan-6-one]
1.42 | O=C1COCC2(CN(C(=O)N3CC4(CC(Cc5ncc(C(F)(F)F)cc5F)C4)C3)C2)N1 [Example 171, 2-[6-[[3-fluoro-5-(trifluoromethyl)-2-pyridyl]methyl]-2-azaspiro[3.3]heptane-2-carbonyl]-8-oxa-2,5-diazaspiro[3.5]nonan-6-one]
0.02 | N#Cc1cc(CC2CC3(C2)CN(C(=O)N2CC4(COC(=O)N4)C2)C3)ccc1C(F)(F)F [Example 18, 5-[[2-(6-keto-7-oxa-2,5-diazaspiro[3.4]octane-2-carbonyl)-2-azaspiro[3.3]heptan-6-yl]methyl]-2-(trifluoromethyl)benzoni-trile]
2.95 | O=C1CCC2(CN(C(=O)N3CC4(CCC(Cc5ccc(Cl)cn5)CC4)C3)C2)N1 [Example 120, 2-[7-[(5-chloro-2-pyridyl)methyl]-2-azaspiro[3.5]nonane-2-carbonyl]-2,5-diazaspiro[3.4]octan-6-one]
0.07 | O=C1CCC2(CN(C(=O)N3CC4(CC(Cc5ccc(S(=O)(=O)C(F)(F)F)cc5)C4)C3)C2)N1 [Example 295, 2-[6-[[4-(trifluoromethylsulfonyl)phenyl]methy]-2-azaspiro[3.3]heptane-2-carbonyl]-2,5-diazaspiro[3.4]octan-6-one]
7 | O=C1CCC2(CN(C(=O)N3CC4(CC(Cc5ncc(C(F)(F)F)cn5)C4)C3)C2)N1 [Example 19, 2-[6-[[5-(trifluoromethyl)pyrimi-din-2-yl]methyl]-2-azaspiro[3.3]heptane-2-carbonyl]-2,5-diazaspiro[3.4]octan-6-one]
0.05 | O=C1NC2(CO1)CN(C(=O)N1CC3(CCC(Oc4cc(Cl)ccc4Cl)CC3)C1)C2 [Example 106, 2-[7-(2,5-dichlorophenoxy)-2-azaspiro[3.5]nonane-2-carbonyl]-7-oxa-2,5-diazaspiro[3.4]octan-6-one]

Same assay, conditions: unit nM

IC50 [nM] | Structure (SMILES)
< 5 | O=C1NC2(CO1)CN(C(=O)N1CC3(CC(Cc4ccc(C(F)(F)F)cc4F)C3)C1)C2 [Example 24, 2-[6-[2-fluoro-4-(trifluoromethyl)benzyl]-2-azaspiro[3.3]heptane-2-carbonyl]-7-oxa-2,5-diazaspiro[3.4]octan-6-one]
